Laboratory results reported in EP4725957A1, “GROUP OF CYCLIC ALKALINE LIPOPEPTIDE COMPOUNDS, AND PREPARATION METHOD THEREFOR AND USE THEREOF” (Institute of Medicinal Biotechnology, Chinese Academy of …, priority 2023, dated 2024).
≈ marks a conversion by molar mass, not a printed value. Bridge positions count the residues as written; N and C are the ends. Square brackets hold non-standard residues; d marks the D form. Peptide text beside a SMILES is read from it. * marks the point of attachment. Dab(CH2SO3H) = N[C@@H](CCNCS(=O)(=O)O)C(=O)O; Heptanoyl(6-Me) = CC(C)CCCCC(=O)*; dOrn = NCCC[C@@H](N)C(=O)O; X1 = CC[C@H](C)CCCCC(=O)*; dDab = NCC[C@@H](N)C(=O)O; Heptanoyl = CCCCCCC(=O)*; Octanoyl = CCCCCCCC(=O)*; Orn = NCCC[C@H](N)C(=O)O; Dab = NCC[C@H](N)C(=O)O; Dap = NC[C@H](N)C(=O)O

Legend:
Type in all cases: cell-based
[1] = Nephrotoxicity assay: in vitro cytotoxicity of HK-2 cells by CCK-8 assay; conditions: human, HK-2 cells (human renal), 72 h incubation with drug-containing medium
Summary of the method: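 HK-2 human renal cells in RPMI-1640 with 10% FBS were exposed to compounds at final 12.5–500 µg/mL for 72 h, then CCK-8 for 3 h and OD450 read. Viability was normalised to drug-free wells; IC50 came from logarithmic regression over three repeats, with polymyxin B as positive drug.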

[2] = system: Escherichia coli ATCC BAA-2523; conditions: ATCC BAA-2523
Summary of the method: (§1)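 Colonies from 18-24 h plates were suspended to 0.5 McFarland and diluted in MH broth. Two-fold compound dilutions were then mixed 1:1 with inoculum to reach 64 to 0.03 mg/L and (2-4) × 10^5 CFU/mL. Plates were sealed and incubated at 35-37°C for 16-20 h, after which the MIC was read.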

[3] = system: Klebsiella pneumoniae KPN+19-15; conditions: KPN+19-15
Summary of the method: as §1

[4] = system: Pseudomonas aeruginosa ATCC 27853; conditions: ATCC 27853
Summary of the method: as §1

[5] = system: Escherichia coli ATCC BAA-2340 (KPC); conditions: ATCC BAA-2340
Summary of the method: as §1

[6] = system: Acinetobacter baumannii NCTC 13304 (OXA-27); conditions: NCTC 13304
Summary of the method: as §1

[7] = system: Klebsiella pneumoniae ATCC BAA-1705 (KPC); conditions: ATCC BAA-1705
Summary of the method: as §1

[8] = system: Acinetobacter baumannii ABA19-1; conditions: ABA19-1
Summary of the method: as §1

[9] = system: Pseudomonas aeruginosa PAE19-3; conditions: PAE19-3
Summary of the method: as §1

Structure (SMILES)	IC50 at 72 h [1] [µg/mL]	MIC [2] [µg/mL]	MIC [3] [µg/mL]	MIC [4] [µg/mL]	MIC [5] [µg/mL]	MIC [6] [µg/mL]	MIC [7] [µg/mL]	MIC [8] [µg/mL]	MIC [9] [µg/mL]
CC(C)CCCCC(=O)N[C@@H](CCN)C(=O)N[C@H](C(=O)N[C@@H](CCN)C(=O)N[C@H]1CCNC(=O)[C@H]([C@@H](C)O)NC(=O)[C@H](CCN)NC(=O)[C@H](CCN)NC(=O)[C@H]([C@@H](C)O)NC(=O)[C@@H](Cc2ccccc2)NC(=O)[C@H](CCN)NC1=O)[C@@H](C)O [Compound 17, 6-methylheptanoyl-Dab-Thr-Dab-ring(4-10)[Dab-Dab-D-Phe-Thr-Dab-Dab-Thr]] ({Heptanoyl(6-Me)}-[Dab]T[Dab][Dab][Dab][dF]T[Dab][Dab]T; lactam 4-C)	> 500	0.06 (≈ 0.051 µM)	≤0.03	0.5 (≈ 0.425 µM)	≤0.03	0.25 (≈ 0.212 µM)	0.5 (≈ 0.425 µM)	0.5 (≈ 0.425 µM)	0.5 (≈ 0.425 µM)
CCCCCCC(=O)N[C@@H](CN)C(=O)N[C@H](C(=O)N[C@H](CCN)C(=O)N[C@H]1CCNC(=O)[C@H]([C@@H](C)O)NC(=O)[C@H](CCN)NC(=O)[C@H](CCN)NC(=O)[C@H](CC(C)C)NC(=O)[C@@H](CC(C)C)NC(=O)[C@H](CCN)NC1=O)[C@@H](C)O [Compound 99, Heptanoyl-Dap-Thr-D-Dab-ring(4-10)[Dab-Dab-D-Leu-Leu-Dab-Dab-Thr]] (Heptanoyl-[Dap]T[dDab][Dab][Dab][dL]L[Dab][Dab]T; lactam 4-C)	317 ± 18.1 (≈ 281 µM)	0.06 (≈ 0.0532 µM)	0.03 (≈ 0.0266 µM)	1 (≈ 0.887 µM)	0.06 (≈ 0.0532 µM)	0.03 (≈ 0.0266 µM)	0.03 (≈ 0.0266 µM)	0.03 (≈ 0.0266 µM)	1 (≈ 0.887 µM)
CC(C)CCCCC(=O)N[C@@H](CCN)C(=O)N[C@H](C(=O)N[C@H](CO)C(=O)N[C@H]1CCNC(=O)[C@H]([C@@H](C)O)NC(=O)[C@H](CCN)NC(=O)[C@H](CCNCS(=O)(=O)O)NC(=O)[C@H]([C@@H](C)O)NC(=O)[C@@H](Cc2ccccc2)NC(=O)[C@H](CCN)NC1=O)[C@@H](C)O [Compound 110, 6-methylheptanoyl-Dab-Thr-D-Ser-ring(4-10)[Dab-Dab-D-Phe-Thr-Dab(CH2SO3H)-Dab-Thr]] ({Heptanoyl(6-Me)}-[Dab]T[dS][Dab][Dab][dF]T[Dab(CH2SO3H)][Dab]T; lactam 4-C)	> 500	0.06 (≈ 0.0477 µM)	0.125 (≈ 0.0993 µM)	0.25 (≈ 0.199 µM)	0.06 (≈ 0.0477 µM)	0.06 (≈ 0.0477 µM)	0.125 (≈ 0.0993 µM)	0.25 (≈ 0.199 µM)	0.5 (≈ 0.397 µM)
CC(C)CCCCC(=O)N[C@@H](CCN)C(=O)N[C@H](C(=O)N[C@H](CO)C(=O)N[C@H]1CCNC(=O)[C@H]([C@@H](C)O)NC(=O)[C@H](CCN)NC(=O)[C@H](CCN)NC(=O)[C@H]([C@@H](C)O)NC(=O)[C@@H](Cc2ccccc2)NC(=O)[C@H](CCNCS(=O)(=O)O)NC1=O)[C@@H](C)O [Compound 109, 6-methylheptanoyl-Dab-Thr-D-Ser-ring(4-10)[Dab-Dab(CH2SO3H)-D-Phe-Thr-Dab-Dab-Thr]] ({Heptanoyl(6-Me)}-[Dab]T[dS][Dab][Dab(CH2SO3H)][dF]T[Dab][Dab]T; lactam 4-C)	> 500	0.06 (≈ 0.0477 µM)	0.125 (≈ 0.0993 µM)	0.25 (≈ 0.199 µM)	0.06 (≈ 0.0477 µM)	0.06 (≈ 0.0477 µM)	0.125 (≈ 0.0993 µM)	0.25 (≈ 0.199 µM)	0.5 (≈ 0.397 µM)
CC(C)CCCCC(=O)N[C@@H](CCN)C(=O)N[C@H](C(=O)N[C@H](CCCN)C(=O)N[C@H]1CCNC(=O)[C@H]([C@@H](C)O)NC(=O)[C@H](CCN)NC(=O)[C@H](CCN)NC(=O)[C@H]([C@@H](C)O)NC(=O)[C@@H](Cc2ccccc2)NC(=O)[C@H](CCN)NC1=O)[C@@H](C)O [Compound 22, 6-methylheptanoyl-Dab-Thr-D-Orn-ring(4-10)[Dab-Dab-D-Phe-Thr-Dab-Dab-Thr]] ({Heptanoyl(6-Me)}-[Dab]T[dOrn][Dab][Dab][dF]T[Dab][Dab]T; lactam 4-C)	> 500	≤0.03	0.125 (≈ 0.105 µM)	0.25 (≈ 0.21 µM)	≤0.03	0.06 (≈ 0.0504 µM)	0.06 (≈ 0.0504 µM)	0.125 (≈ 0.105 µM)	1 (≈ 0.839 µM)
CCCCCCCC(=O)N[C@@H](CCN)C(=O)N[C@H](C(=O)N[C@H](CO)C(=O)N[C@H]1CCNC(=O)[C@H]([C@@H](C)O)NC(=O)[C@H](CN)NC(=O)[C@H](CCN)NC(=O)[C@H]([C@@H](C)O)NC(=O)[C@@H](Cc2ccccc2)NC(=O)[C@H](CCN)NC1=O)[C@@H](C)O [Compound 83, Octanoyl-Dab-Thr-D-Ser-ring(4-10)[Dab-Dab-D-Phe-Thr-Dab-Dap-Thr]] (Octanoyl-[Dab]T[dS][Dab][Dab][dF]T[Dab][Dap]T; lactam 4-C)	> 500	0.06 (≈ 0.0522 µM)	0.5 (≈ 0.435 µM)	>64	0.06 (≈ 0.0522 µM)	≤0.03	0.25 (≈ 0.217 µM)	0.06 (≈ 0.0522 µM)	64 (≈ 55.6 µM)
CC(C)CCCCC(=O)N[C@@H](CCN)C(=O)N[C@H](C(=O)N[C@H](CCN)C(=O)N[C@H]1CCNC(=O)[C@H]([C@@H](C)O)NC(=O)[C@H](CCN)NC(=O)[C@H](CCN)NC(=O)[C@H]([C@@H](C)O)NC(=O)[C@@H](Cc2ccccc2)NC(=O)[C@H](CCN)NC1=O)[C@@H](C)O [Compound 12, 6-methylheptanoyl-Dab-Thr-D-Dab-ring(4-10)[Dab-Dab-D-Phe-Thr-Dab-Dab-Thr]] ({Heptanoyl(6-Me)}-[Dab]T[dDab][Dab][Dab][dF]T[Dab][Dab]T; lactam 4-C)	> 500	≤0.03	≤0.03	0.5 (≈ 0.425 µM)	≤0.03	≤0.03	0.125 (≈ 0.106 µM)	0.06 (≈ 0.051 µM)	0.5 (≈ 0.425 µM)
CCCCCCCC(=O)N[C@@H](CCN)C(=O)N[C@H](C(=O)N[C@@H](CN)C(=O)N[C@H]1CCNC(=O)[C@H]([C@@H](C)O)NC(=O)[C@H](CCN)NC(=O)[C@H](CCN)NC(=O)[C@H]([C@@H](C)O)NC(=O)[C@@H](Cc2ccccc2)NC(=O)[C@H](CCN)NC1=O)[C@@H](C)O [Compound 8, Octanoyl-Dab-Thr-Dap-ring(4-10)[Dab-Dab-D-Phe-Thr-Dab-Dab-Thr]] (Octanoyl-[Dab]T[Dap][Dab][Dab][dF]T[Dab][Dab]T; lactam 4-C)	> 500	≤0.03	≤0.03	0.125 (≈ 0.107 µM)	≤0.03	≤0.03	≤0.03	≤0.03	0.25 (≈ 0.215 µM)
CCCCCCCC(=O)N[C@@H](CCCN)C(=O)N[C@H](C(=O)N[C@H](CO)C(=O)N[C@H]1CCNC(=O)[C@H]([C@@H](C)O)NC(=O)[C@H](CCN)NC(=O)[C@H](CCN)NC(=O)[C@H]([C@@H](C)O)NC(=O)[C@@H](Cc2ccccc2)NC(=O)[C@H](CCN)NC1=O)[C@@H](C)O [Compound 58, Octanoyl-Orn-Thr-D-Ser-ring(4-10)[Dab-Dab-D-Phe-Thr-Dab-Dab-Thr]] (Octanoyl-[Orn]T[dS][Dab][Dab][dF]T[Dab][Dab]T; lactam 4-C)	> 500	0.125 (≈ 0.106 µM)	0.5 (≈ 0.424 µM)	64 (≈ 54.3 µM)	0.125 (≈ 0.106 µM)	0.25 (≈ 0.212 µM)	0.25 (≈ 0.212 µM)	0.25 (≈ 0.212 µM)	4 (≈ 3.39 µM)
CC[C@H](C)CCCCC(=O)N[C@@H](CCN)C(=O)N[C@H](C(=O)N[C@@H](CN)C(=O)N[C@H]1CCNC(=O)[C@H]([C@@H](C)O)NC(=O)[C@H](CCN)NC(=O)[C@H](CCN)NC(=O)[C@H](CC(C)C)NC(=O)[C@@H](Cc2ccccc2)NC(=O)[C@H](CCN)NC1=O)[C@@H](C)O [Compound 36, (S)-6-methyloctanoyl-Dab-Thr-Dap-ring(4-10)[Dab-Dab-D-Phe-Leu-Dab-Dab-Thr]] (X1-[Dab]T[Dap][Dab][Dab][dF]L[Dab][Dab]T; lactam 4-C)	237 ± 5.3 (≈ 199 µM)	0.03 (≈ 0.0252 µM)	0.03 (≈ 0.0252 µM)	0.03 (≈ 0.0252 µM)	0.03 (≈ 0.0252 µM)	0.03 (≈ 0.0252 µM)	0.03 (≈ 0.0252 µM)	0.03 (≈ 0.0252 µM)	0.25 (≈ 0.21 µM)
CC(C)CCCCC(=O)N[C@@H](CCN)C(=O)N[C@H](C(=O)N[C@H](CO)C(=O)N[C@H]1CCNC(=O)[C@H]([C@@H](C)O)NC(=O)[C@H](CCN)NC(=O)[C@H](CCN)NC(=O)[C@H]([C@@H](C)O)NC(=O)[C@@H](Cc2ccccc2)NC(=O)[C@H](CN)NC1=O)[C@@H](C)O [Compound 62, 6-methylheptanoyl-Dab-Thr-D-Ser-ring(4-10)[Dab-Dap-D-Phe-Thr-Dab-Dab-Thr]] ({Heptanoyl(6-Me)}-[Dab]T[dS][Dab][Dap][dF]T[Dab][Dab]T; lactam 4-C)	> 500	0.06 (≈ 0.0522 µM)	0.5 (≈ 0.435 µM)	64 (≈ 55.6 µM)	0.06 (≈ 0.0522 µM)	0.25 (≈ 0.217 µM)	0.25 (≈ 0.217 µM)	0.25 (≈ 0.217 µM)	4 (≈ 3.48 µM)
